Activity calls are given as the source filed them. The rule behind the calls is not given here.
Tested on: CCRIS mutagenicity, Ames/micronucleus/aberration tests
Assay: CCRIS mutagenicity studies
[1] = Test System: AMES SALMONELLA TYPHIMURIUM, Strain/Indicator: TA100, Metabolic Activation: NONE, Method: STANDARD PLATE

With `CCOc1ccc(NC(C)=O)cc1` the mutagenic call (End Point: IN VITRO MICRONUCLEUS, Test System: CHL/IU CELLS, Metabolic Activation: RAT, LIVER, S-9, PHENOBARBITAL AND 5,6-BENZOFLAVONE) was “inactive; negative”, the mutagenic call (End Point: IN VITRO MICRONUCLEUS, Test System: RAT KIDNEY FIBROBLAST NRK-49F, Metabolic Activation: NONE) was “inactive; negative” and the mutagenic call (Test System: AMES SALMONELLA TYPHIMURIUM, Strain/Indicator: TA98, Metabolic Activation: GUINEA PIG, LIVER, S-9, PCB, Method: PREINCUBATION) was “inactive; negative”. For the same compound, the mutagenic call (Test System: AMES SALMONELLA TYPHIMURIUM, Strain/Indicator: TA98, Metabolic Activation: HAMSTER, LIVER, S-9, AROCLOR 1254, Method: STANDARD PLATE) was “inactive; negative”, the mutagenic call (Test System: AMES SALMONELLA TYPHIMURIUM, Strain/Indicator: TA98, Metabolic Activation: HAMSTER, LIVER, S-9, PCB, Method: PREINCUBATION) was “inactive; negative” and the mutagenic call (Test System: AMES SALMONELLA TYPHIMURIUM, Strain/Indicator: TA98, Metabolic Activation: MOUSE, LIVER, S-9, AROCLOR 1254, Method: STANDARD PLATE) was “inactive; negative”. The mutagenic call (Test System: AMES SALMONELLA TYPHIMURIUM, Strain/Indicator: TA98, Metabolic Activation: MOUSE, LIVER, S-9, PCB, Method: PREINCUBATION) was “inactive; negative”, the mutagenic call (Test System: AMES SALMONELLA TYPHIMURIUM, Strain/Indicator: TA98, Metabolic Activation: NONE, Method: PREINCUBATION) was “inactive; negative” and the mutagenic call (Test System: AMES SALMONELLA TYPHIMURIUM, Strain/Indicator: TA98, Metabolic Activation: NONE, Method: STANDARD PLATE) was “inactive; negative”. The mutagenic call (Test System: AMES SALMONELLA TYPHIMURIUM, Strain/Indicator: TA98, Metabolic Activation: RAT, LIVER, S-9, AROCLOR 1254, Method: STANDARD PLATE) was “inactive; negative”, the mutagenic call (Test System: AMES SALMONELLA TYPHIMURIUM, Strain/Indicator: TA98, Metabolic Activation: RAT, LIVER, S-9, PCB, Method: PREINCUBATION) was “inactive; negative” and the mutagenic call (Test System: AMES SALMONELLA TYPHIMURIUM, Strain/Indicator: TA100, Metabolic Activation: GUINEA PIG, LIVER, S-9, PCB, Method: PREINCUBATION) was “active; positive”. The mutagenic call (Test System: AMES SALMONELLA TYPHIMURIUM, Strain/Indicator: TA100, Metabolic Activation: HAMSTER, LIVER, S-9, AROCLOR 1254, Method: STANDARD PLATE) was “active; positive”, the mutagenic call (Test System: AMES SALMONELLA TYPHIMURIUM, Strain/Indicator: TA100, Metabolic Activation: HAMSTER, LIVER, S-9, KANECHLOR 400, Method: PREINCUBATION) was “active; positive” and the mutagenic call (Test System: AMES SALMONELLA TYPHIMURIUM, Strain/Indicator: TA100, Metabolic Activation: HAMSTER, LIVER, S-9, PCB, Method: PREINCUBATION) was “active; positive”. The mutagenic call (Test System: AMES SALMONELLA TYPHIMURIUM, Strain/Indicator: TA100, Metabolic Activation: HAMSTER, LIVER, S-9, Method: PREINCUBATION) was “inactive; negative”, the mutagenic call (Test System: AMES SALMONELLA TYPHIMURIUM, Strain/Indicator: TA100, Metabolic Activation: MOUSE, LIVER, S-9, AROCLOR 1254, Method: STANDARD PLATE) was “inactive; negative” and the mutagenic call (Test System: AMES SALMONELLA TYPHIMURIUM, Strain/Indicator: TA100, Metabolic Activation: MOUSE, LIVER, S-9, PCB, Method: PREINCUBATION) was “inactive; negative”. For the same compound, the mutagenic call (Test System: AMES SALMONELLA TYPHIMURIUM, Strain/Indicator: TA100, Metabolic Activation: NONE, Method: PREINCUBATION) was “inactive; negative”, the mutagenic call [1] was “inactive; negative” and the mutagenic call (Test System: AMES SALMONELLA TYPHIMURIUM, Strain/Indicator: TA100, Metabolic Activation: RAT, LIVER, S-9, AROCLOR 1254, Method: STANDARD PLATE) was “inactive; negative”. The mutagenic call (Test System: AMES SALMONELLA TYPHIMURIUM, Strain/Indicator: TA100, Metabolic Activation: RAT, LIVER, S-9, KANECHLOR 400, Method: PREINCUBATION) was “inactive; negative”, the mutagenic call (Test System: AMES SALMONELLA TYPHIMURIUM, Strain/Indicator: TA100, Metabolic Activation: RAT, LIVER, S-9, PCB, Method: PREINCUBATION) was “inactive; negative” and the mutagenic call (Test System: AMES SALMONELLA TYPHIMURIUM, Strain/Indicator: TA100, Metabolic Activation: RAT, LIVER, S-9, Method: PREINCUBATION) was “inactive; negative”. The mutagenic call (Test System: AMES SALMONELLA TYPHIMURIUM, Strain/Indicator: TA1535, Metabolic Activation: HAMSTER, LIVER, S-9, AROCLOR 1254, Method: STANDARD PLATE) was “inactive; negative”, the mutagenic call (Test System: AMES SALMONELLA TYPHIMURIUM, Strain/Indicator: TA1535, Metabolic Activation: MOUSE, LIVER, S-9, AROCLOR 1254, Method: STANDARD PLATE) was “inactive; negative” and the mutagenic call (Test System: AMES SALMONELLA TYPHIMURIUM, Strain/Indicator: TA1535, Metabolic Activation: NONE, Method: STANDARD PLATE) was “inactive; negative”. The mutagenic call (Test System: AMES SALMONELLA TYPHIMURIUM, Strain/Indicator: TA1535, Metabolic Activation: RAT, LIVER, S-9, AROCLOR 1254, Method: STANDARD PLATE) was “inactive; negative”, the mutagenic call (Test System: AMES SALMONELLA TYPHIMURIUM, Strain/Indicator: TA1537, Metabolic Activation: HAMSTER, LIVER, S-9, AROCLOR 1254, Method: STANDARD PLATE) was “inactive; negative” and the mutagenic call (Test System: AMES SALMONELLA TYPHIMURIUM, Strain/Indicator: TA1537, Metabolic Activation: MOUSE, LIVER, S-9, AROCLOR 1254, Method: STANDARD PLATE) was “inactive; negative”. For the same compound, the mutagenic call (Test System: AMES SALMONELLA TYPHIMURIUM, Strain/Indicator: TA1537, Metabolic Activation: NONE, Method: STANDARD PLATE) was “inactive; negative”, the mutagenic call (Test System: AMES SALMONELLA TYPHIMURIUM, Strain/Indicator: TA1537, Metabolic Activation: RAT, LIVER, S-9, AROCLOR 1254, Method: STANDARD PLATE) was “inactive; negative” and the mutagenic call (Test System: AMES SALMONELLA TYPHIMURIUM, Strain/Indicator: TA1538, Metabolic Activation: HAMSTER, LIVER, S-9, AROCLOR 1254, Method: STANDARD PLATE) was “inactive; negative”. For the same compound, the mutagenic call (Test System: AMES SALMONELLA TYPHIMURIUM, Strain/Indicator: TA1538, Metabolic Activation: MOUSE, LIVER, S-9, AROCLOR 1254, Method: STANDARD PLATE) was “inactive; negative”, the mutagenic call (Test System: AMES SALMONELLA TYPHIMURIUM, Strain/Indicator: TA1538, Metabolic Activation: NONE, Method: STANDARD PLATE) was “inactive; negative” and the mutagenic call (Test System: AMES SALMONELLA TYPHIMURIUM, Strain/Indicator: TA1538, Metabolic Activation: RAT, LIVER, S-9, AROCLOR 1254, Method: STANDARD PLATE) was “inactive; negative”. For the same compound, the mutagenic call (Test System: CHINESE HAMSTER V-79, Strain/Indicator: V-79/6-THIOGUANINE, Metabolic Activation: HAMSTER, LIVER, S-9, AROCLOR 1254, Method: SUSPENSION/PLATE) was “active; positive”, the mutagenic call (Test System: CHINESE HAMSTER V-79, Strain/Indicator: V-79/6-THIOGUANINE, Metabolic Activation: NONE, Method: SUSPENSION/PLATE) was “inactive; negative” and the mutagenic call (Test System: CHINESE HAMSTER V-79, Strain/Indicator: V-79/6-THIOGUANINE, Metabolic Activation: RAT, LIVER, S-9, PHENOBARBITAL AND BETA-NAPHTHOFLAVONE, Method: SUSPENSION/PLATE) was “inactive; negative”. For the same compound, the mutagenic call (Test System: E. COLI, Strain/Indicator: WP2 UVRA, Metabolic Activation: HAMSTER, LIVER, S-9, AROCLOR 1254, Method: STANDARD PLATE) was “inactive; negative”, the mutagenic call (Test System: E. COLI, Strain/Indicator: WP2 UVRA, Metabolic Activation: HAMSTER, LIVER, S-9, Method: STANDARD PLATE) was “inactive; negative” and the mutagenic call (Test System: E. COLI, Strain/Indicator: WP2 UVRA, Metabolic Activation: MOUSE, LIVER, S-9, AROCLOR 1254, Method: STANDARD PLATE) was “inactive; negative”. The mutagenic call (Test System: E. COLI, Strain/Indicator: WP2 UVRA, Metabolic Activation: MOUSE, LIVER, S-9, Method: STANDARD PLATE) was “inactive; negative”, the mutagenic call (Test System: E. COLI, Strain/Indicator: WP2 UVRA, Metabolic Activation: NONE, Method: STANDARD PLATE) was “inactive; negative” and the mutagenic call (Test System: E. COLI, Strain/Indicator: WP2 UVRA, Metabolic Activation: RAT, LIVER, S-9, AROCLOR 1254, Method: STANDARD PLATE) was “inactive; negative”. For the same compound, the mutagenic call (Test System: E. COLI, Strain/Indicator: WP2 UVRA, Metabolic Activation: RAT, LIVER, S-9, Method: STANDARD PLATE) was “inactive; negative”.
With `CC1(C)CC(C(N)=O)C(C)(C)N1[O]` (configuration not stated) the mutagenic call [1] was “inactive; negative”.

Source: PubChem BioAssay AID1259407 (Chemical Carcinogenesis Research Information System (CCRIS), 2018)
